Measurements: US20080161395A1, “Derivatives of Aminobutanoic Acid Inhibiting Cpt” (SIGMA-TAU INDUSTRIE FARMACEUTICHE RIUNITE S.P.A., priority 2005, published 2008)

Tests used:
CPT1 liver = biological target: T1, CPT1 liver (Rattus norvegicus, UniProt P32198); assay: Inhibition of CPT in fresh rat liver mitochondrial preparations; format: biochemical, Fischer rats; conditions: rat liver mitochondria, 50 μM [14C]palmitoyl-CoA, 10 mM L-carnitine, 37° C., 1 minute
T1 construct: fresh mitochondrial preparations obtained from the liver or heart of Fischer rats; from tissue; host or cells: liver mitochondria of Fischer rats
T1 sequence (P32198 1-773): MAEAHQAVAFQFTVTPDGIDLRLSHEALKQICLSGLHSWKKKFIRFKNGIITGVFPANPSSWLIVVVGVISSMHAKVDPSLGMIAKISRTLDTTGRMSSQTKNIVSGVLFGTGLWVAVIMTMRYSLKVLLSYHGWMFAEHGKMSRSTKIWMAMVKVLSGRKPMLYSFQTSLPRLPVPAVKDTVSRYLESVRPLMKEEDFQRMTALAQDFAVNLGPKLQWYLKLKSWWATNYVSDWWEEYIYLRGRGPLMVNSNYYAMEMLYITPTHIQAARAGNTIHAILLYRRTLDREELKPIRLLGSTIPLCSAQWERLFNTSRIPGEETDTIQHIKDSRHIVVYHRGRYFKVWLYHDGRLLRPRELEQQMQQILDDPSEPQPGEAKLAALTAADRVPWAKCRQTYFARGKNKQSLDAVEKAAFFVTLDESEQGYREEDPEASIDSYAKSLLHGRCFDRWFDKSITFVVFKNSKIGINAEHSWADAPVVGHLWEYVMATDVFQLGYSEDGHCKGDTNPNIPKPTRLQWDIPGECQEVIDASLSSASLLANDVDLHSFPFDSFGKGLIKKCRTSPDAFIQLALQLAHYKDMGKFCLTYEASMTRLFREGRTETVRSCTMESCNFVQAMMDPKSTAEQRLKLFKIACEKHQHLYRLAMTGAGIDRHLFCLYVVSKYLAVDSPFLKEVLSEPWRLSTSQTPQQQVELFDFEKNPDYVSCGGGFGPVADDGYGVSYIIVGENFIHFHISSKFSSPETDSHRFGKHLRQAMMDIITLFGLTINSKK
Protocol: 100 μl of a mitochondrial suspension, containing 50 μM of [^14C] palmitoyl-CoA (spec.act. 10000 dpm/mole) and 10 mM of L-carnitine, are incubated at 37° C. in the presence of stepped concentrations (0-3 mM) of product under examination.
(§1) The IC50 is then determined.

CPT1 heart = biological target: T2, CPT1 heart (Rattus norvegicus, UniProt Q63704); assay: Inhibition of CPT in fresh rat heart mitochondrial preparations; format: biochemical, Fischer rats; conditions: rat heart mitochondria, 50 μM [14C]palmitoyl-CoA, 10 mM L-carnitine, 37° C., 1 minute
T2 construct: fresh mitochondrial preparations obtained from the liver or heart of Fischer rats; from tissue; host or cells: heart mitochondria of Fischer rats
T2 sequence (Q63704 1-772): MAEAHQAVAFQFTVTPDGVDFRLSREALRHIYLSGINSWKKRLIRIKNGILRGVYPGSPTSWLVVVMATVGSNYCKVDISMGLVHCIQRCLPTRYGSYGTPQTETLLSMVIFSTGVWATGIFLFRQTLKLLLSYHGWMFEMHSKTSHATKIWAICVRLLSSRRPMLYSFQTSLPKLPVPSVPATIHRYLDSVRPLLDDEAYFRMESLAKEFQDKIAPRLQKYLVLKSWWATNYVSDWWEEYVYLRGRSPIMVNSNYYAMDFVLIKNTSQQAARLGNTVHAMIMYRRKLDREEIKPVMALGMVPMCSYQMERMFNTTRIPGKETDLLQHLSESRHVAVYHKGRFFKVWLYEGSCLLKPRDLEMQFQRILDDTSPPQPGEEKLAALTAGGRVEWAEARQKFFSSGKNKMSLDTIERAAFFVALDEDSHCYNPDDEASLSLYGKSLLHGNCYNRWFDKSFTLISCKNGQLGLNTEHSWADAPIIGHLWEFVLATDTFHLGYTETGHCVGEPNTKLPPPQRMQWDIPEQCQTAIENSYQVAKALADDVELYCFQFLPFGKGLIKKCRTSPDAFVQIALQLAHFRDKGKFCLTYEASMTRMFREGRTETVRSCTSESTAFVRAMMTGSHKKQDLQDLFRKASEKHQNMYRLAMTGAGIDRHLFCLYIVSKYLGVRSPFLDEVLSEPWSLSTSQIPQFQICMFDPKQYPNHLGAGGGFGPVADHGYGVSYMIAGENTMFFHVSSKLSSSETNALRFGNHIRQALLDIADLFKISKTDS
Protocol: The inhibition of CPT was evaluated on fresh mitochondrial preparations obtained from the liver or heart of Fischer rats, fed normally; the mitochondria taken from the liver or heart are suspended in a 75 mM sucrose buffer, EGTA 1 mM, pH 7.5. 100 μl of a mitochondrial suspension, containing 50 μM of [^14C] palmitoyl-CoA (spec.act. 10000 dpm/mole) and 10 mM of L-carnitine, are incubated at 37° C. in the presence of stepped concentrations (0-3 mM) of product under examination.
as §1

[1] = test system: CPT-1 in the hypothalamus; conditions: intracerebroventricular (icv) administration; Nature Medicine, 2003, 9(6), 756-761; cited from earlier work

Compound	IC50 (CPT1 liver) [µM]	IC50 (CPT1 heart) [µM]	food intake and gluconeogenesis [1]
CCCCCCCCCCCCCCNC(=O)N[C@H](CC(=O)O)CN(C)C [ST2837, (R)-4-(dimethylamino)-3-(tetradecylcarbamoyl)-amino-butyric Acid]	5.7	70	–
CCCCCCCCCCCCCCNC(=O)N[C@H](CC(=O)[O-])C[N+](C)(C)C [ST1326, R-4-trimethyl ammonium-3-(tetradecylcarbamoyl)-aminobutyrate]	0.36	48.8	significantly and consistently reducing
